Here are results for one molecule from US7906491B2 (Univisitair Medisch Centrum Utrecht, priority 2002, dated 2011).

This test deals with Ovcar3 cells. As to the kind of experiment: Adhesion assay of Ovcar3 cells to fibronectin. Format: cell-based. As for the experimental part:
A: 8-pCPT-2′-O-Me-cAMP stimulates cell adhesion. Upper panel: quantification of Ovcar3 cells adhering to fibronectin after treatment with increasing concentrations of 8-pCPT-2′-O-Me-cAMP. Lower panel: Ovcar3 cells were treated with increasing concentrations of 8-pCPT-2′-O-Me-cAMP for 15 min, cells were lysed and analyzed for activation of Rap1 (upper blot) and CREB (lower blot). Total Rap1 levels are shown (middle blot). B: 8-pCPT-2′-O-Me-cAMP increases the rate of cell adhesion. Upper panel: quantification of Ovcar3 cells adhering to fibronectin at various time points. Lower panel: cells were treated with 60 μM 8-pCPT-2′-O-Me-cAMP for the indicated times. Cell lysates were analyzed for activation of Rap1 (upper blot) and CREB (lower blot). Total levels of Rap1 in cell lysates are shown (middle blot). C: Ovcar3 cells were either pre-incubated at 37° C. for 30 min with the PKA inhibitor H-89 (10 μM) 30 min prior to seeding onto the wells (‘Short’) or H-89 was added 30 min prior to trypsinization and during the recovery period (‘Long’) and seeded onto wells in the absence or presence of 8-pCPT-2′-O-Me-cAMP (100 μM). Cells were allowed to adhere for 1 h. D, cAMP-induced adhesion to fibronectin is blocked by inhibitors of Rap1. Left panel: Ovcar3 cells were transiently transfected with either mock DNA, increasing concentrations of HA-Rap1GAP II (0.5, 1, 2 or 6 μg, respectively), HA-Rap1GAPI (6 μg) or HA-RBD of RalGDS (6 μg), respectively. Cells were treated with 8-Br-cAMP or 8-pCPT-2′-O-Me-cAMP and adhesion to fibronectin was determined. […]
In functional assays, 8-pCPT-2′-O-Me-cAMP appeared to induce integrin-mediated cell adhesion through Epac and Rap1. […] The cells were seeded onto fibronectin-coated plates in the presence or absence of 8-pCPT-2′-O-Me-cAMP and the amount of cells that adhered after a certain period of time was quantified. […]
24-well plates were coated overnight with 2 μg/ml fibronectin (Sigma, St. Louis, Mo., USA) in sodium bicarbonate buffer (Sigma, St. Louis, Mo., USA). […] Cells were centrifuged, counted and resuspended at 3×10^5 cells/ml in serum-free RPMI with 0.5% BSA. […]

In general, EC50 refers to the concentration at which the effect is half-maximal. As to `CO[C@@H]1[C@@H]2OP(=O)(O)OC[C@H]2O[C@H]1n1c(Sc2ccc(Cl)cc2)nc2c(N)ncnc21` [Compound I-007, 8-(4-chloro-phenylthio)-2′-O-methyladenosine-3′,5′-cyclic monophosphate], the EC50 (Homo sapiens, OVCAR-3, FIG. 7A, read-out: EC50 of enhanced cell adhesion to fibronectin) is approximately 30 µM. Further, for the setting “fibronectin, time-course, FIG. 7B”, the “time after which increased adhesion was already observed” value turned out to be 30 min.
